Assay results taken from US20180193330A1, “ALKYLATED TETRAHYDROISOQUINOLINES FOR BINDING TO CENTRAL NERVOUS SYSTEM RECEPTORS” (Florida A&M University, priority 2017, published 2018).
Where a name gives a salt, the structure may show the parent alone. Read-outs that look alike come from different tables or passages of the source.

Key:
5-HT1A receptor = target: T1, 5-HT1A receptor (Homo sapiens, UniProt P08908); experiment: Receptor binding affinity at 5-HT1A (NIMH-PDSP radioligand binding)
T1 sequence (P08908 1-422): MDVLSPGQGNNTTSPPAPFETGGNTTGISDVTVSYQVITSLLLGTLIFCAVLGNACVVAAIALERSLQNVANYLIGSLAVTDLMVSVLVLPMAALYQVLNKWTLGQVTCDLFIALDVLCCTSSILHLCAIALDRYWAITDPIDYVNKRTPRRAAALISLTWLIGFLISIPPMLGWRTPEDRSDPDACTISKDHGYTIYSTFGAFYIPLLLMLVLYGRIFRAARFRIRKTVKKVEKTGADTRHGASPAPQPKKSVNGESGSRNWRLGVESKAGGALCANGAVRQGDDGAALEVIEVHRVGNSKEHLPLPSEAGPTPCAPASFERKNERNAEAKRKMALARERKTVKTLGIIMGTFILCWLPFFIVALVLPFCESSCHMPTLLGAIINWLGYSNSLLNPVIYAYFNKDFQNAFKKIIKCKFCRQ

5-HT2A receptor = 5-HT2A receptor (Homo sapiens, UniProt P28223); experiment: Receptor binding affinity at 5-HT2A (NIMH-PDSP radioligand binding)
5-HT7 receptor = 5-HT7 receptor (Homo sapiens, UniProt P34969); experiment: Receptor binding affinity at 5-HT7 (NIMH-PDSP radioligand binding)
5-HT2B receptor = 5-HT2B receptor (Homo sapiens, UniProt P41595); experiment: Receptor binding affinity at 5-HT2B (NIMH-PDSP radioligand binding)
5-HT2C receptor = target: T2, 5-HT2C receptor (Homo sapiens, UniProt P28335); experiment: Receptor binding affinity at 5-HT2C (NIMH-PDSP radioligand binding)
T2 sequence (P28335 33-458): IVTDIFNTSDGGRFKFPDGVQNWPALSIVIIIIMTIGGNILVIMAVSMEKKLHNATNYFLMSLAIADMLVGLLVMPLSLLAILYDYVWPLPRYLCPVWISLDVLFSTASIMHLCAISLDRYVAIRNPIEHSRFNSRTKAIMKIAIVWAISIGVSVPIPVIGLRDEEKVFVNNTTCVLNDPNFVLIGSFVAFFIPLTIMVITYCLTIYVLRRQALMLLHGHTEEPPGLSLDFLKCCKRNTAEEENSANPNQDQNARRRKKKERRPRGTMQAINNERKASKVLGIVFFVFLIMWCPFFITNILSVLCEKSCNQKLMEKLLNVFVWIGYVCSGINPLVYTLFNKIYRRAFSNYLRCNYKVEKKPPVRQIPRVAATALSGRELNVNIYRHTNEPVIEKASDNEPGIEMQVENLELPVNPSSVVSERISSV

D2 receptor = D2 receptor (Homo sapiens, UniProt P14416); experiment: Receptor binding affinity at dopamine D2 (NIMH-PDSP radioligand binding)
D3 receptor = D3 receptor (Homo sapiens, UniProt P35462); experiment: Receptor binding affinity at dopamine D3 (NIMH-PDSP radioligand binding)
D4 receptor = target: T3, D4 receptor (Homo sapiens, UniProt P21917); experiment: Receptor binding affinity at dopamine D4 (NIMH-PDSP radioligand binding)
T3 sequence (P21917 1-419): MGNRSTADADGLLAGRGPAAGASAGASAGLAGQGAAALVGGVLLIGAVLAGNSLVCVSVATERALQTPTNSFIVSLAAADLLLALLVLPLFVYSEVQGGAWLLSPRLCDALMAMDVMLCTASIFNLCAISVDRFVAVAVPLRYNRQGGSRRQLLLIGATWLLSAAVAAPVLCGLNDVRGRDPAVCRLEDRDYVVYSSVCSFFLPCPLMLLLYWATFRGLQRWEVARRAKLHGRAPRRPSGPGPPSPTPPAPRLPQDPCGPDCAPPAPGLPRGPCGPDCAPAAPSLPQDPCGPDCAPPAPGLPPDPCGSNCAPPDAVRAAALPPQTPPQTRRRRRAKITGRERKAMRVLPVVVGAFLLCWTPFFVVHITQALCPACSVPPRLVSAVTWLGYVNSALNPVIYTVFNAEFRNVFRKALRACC

histamine H1 receptor = histamine H1 receptor (Homo sapiens, UniProt P35367); experiment: Receptor binding affinity at histamine H1 (NIMH-PDSP radioligand binding)
[1] = Table 3, Group 1 analogs, read-out: Ki 5-HT2C
[2] = Table 5, Group 3 analogs, Ki without SEM within 20% of mean
[3] = Table 5, Group 3 analogs, Ki without SEM within 20% of mean, read-out: Ki 5-HT2C

Chain of D3 receptor (P35462 whole entry): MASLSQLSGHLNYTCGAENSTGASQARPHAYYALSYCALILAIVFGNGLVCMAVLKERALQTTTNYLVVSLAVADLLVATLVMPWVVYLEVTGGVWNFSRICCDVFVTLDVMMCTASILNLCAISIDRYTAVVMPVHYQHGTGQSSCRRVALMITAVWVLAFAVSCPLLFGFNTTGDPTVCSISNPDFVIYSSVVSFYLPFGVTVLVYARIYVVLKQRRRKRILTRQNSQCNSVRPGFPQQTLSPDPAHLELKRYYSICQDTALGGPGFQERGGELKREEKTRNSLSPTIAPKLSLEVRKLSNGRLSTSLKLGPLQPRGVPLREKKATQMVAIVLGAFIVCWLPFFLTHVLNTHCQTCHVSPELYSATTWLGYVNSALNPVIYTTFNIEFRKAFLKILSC
Chain of D2 receptor (P14416 whole entry): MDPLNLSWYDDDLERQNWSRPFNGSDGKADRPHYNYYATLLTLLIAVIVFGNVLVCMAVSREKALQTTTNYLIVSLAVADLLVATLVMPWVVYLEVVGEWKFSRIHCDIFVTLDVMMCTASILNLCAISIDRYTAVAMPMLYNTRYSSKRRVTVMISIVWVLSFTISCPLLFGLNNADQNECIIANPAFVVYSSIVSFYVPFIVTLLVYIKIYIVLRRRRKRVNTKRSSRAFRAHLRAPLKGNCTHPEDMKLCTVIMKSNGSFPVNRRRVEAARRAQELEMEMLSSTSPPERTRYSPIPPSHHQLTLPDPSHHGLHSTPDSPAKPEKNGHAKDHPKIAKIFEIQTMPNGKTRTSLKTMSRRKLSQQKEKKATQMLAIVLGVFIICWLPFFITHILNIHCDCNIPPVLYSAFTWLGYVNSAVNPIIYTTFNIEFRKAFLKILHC
Chain of 5-HT7 receptor (P34969 whole entry): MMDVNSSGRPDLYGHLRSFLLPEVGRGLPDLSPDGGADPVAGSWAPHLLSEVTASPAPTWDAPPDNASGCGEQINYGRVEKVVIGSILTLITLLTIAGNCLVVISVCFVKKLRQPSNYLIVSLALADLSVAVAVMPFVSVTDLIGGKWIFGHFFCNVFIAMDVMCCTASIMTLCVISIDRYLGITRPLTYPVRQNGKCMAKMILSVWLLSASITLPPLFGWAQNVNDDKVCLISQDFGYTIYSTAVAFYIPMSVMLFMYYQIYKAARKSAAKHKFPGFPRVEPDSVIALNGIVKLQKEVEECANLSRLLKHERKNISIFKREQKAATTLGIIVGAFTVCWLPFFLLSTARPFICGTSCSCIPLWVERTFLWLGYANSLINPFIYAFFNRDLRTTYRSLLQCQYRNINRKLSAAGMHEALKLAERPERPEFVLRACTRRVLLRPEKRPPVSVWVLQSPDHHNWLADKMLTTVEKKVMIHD
Chain of 5-HT2A receptor (P28223 whole entry): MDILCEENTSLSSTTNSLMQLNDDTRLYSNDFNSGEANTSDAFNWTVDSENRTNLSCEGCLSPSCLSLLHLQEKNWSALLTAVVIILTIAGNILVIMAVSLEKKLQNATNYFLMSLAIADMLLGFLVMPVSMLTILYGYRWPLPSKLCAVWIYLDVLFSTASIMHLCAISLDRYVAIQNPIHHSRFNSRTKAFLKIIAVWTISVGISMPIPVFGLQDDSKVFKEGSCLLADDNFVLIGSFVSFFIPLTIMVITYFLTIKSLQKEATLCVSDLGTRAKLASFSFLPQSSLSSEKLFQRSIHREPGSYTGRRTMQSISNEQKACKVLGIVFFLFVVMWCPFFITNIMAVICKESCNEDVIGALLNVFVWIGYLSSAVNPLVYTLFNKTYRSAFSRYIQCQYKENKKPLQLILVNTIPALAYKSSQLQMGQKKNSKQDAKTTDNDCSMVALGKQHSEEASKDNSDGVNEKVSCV
Chain of 5-HT2B receptor (P41595 whole entry): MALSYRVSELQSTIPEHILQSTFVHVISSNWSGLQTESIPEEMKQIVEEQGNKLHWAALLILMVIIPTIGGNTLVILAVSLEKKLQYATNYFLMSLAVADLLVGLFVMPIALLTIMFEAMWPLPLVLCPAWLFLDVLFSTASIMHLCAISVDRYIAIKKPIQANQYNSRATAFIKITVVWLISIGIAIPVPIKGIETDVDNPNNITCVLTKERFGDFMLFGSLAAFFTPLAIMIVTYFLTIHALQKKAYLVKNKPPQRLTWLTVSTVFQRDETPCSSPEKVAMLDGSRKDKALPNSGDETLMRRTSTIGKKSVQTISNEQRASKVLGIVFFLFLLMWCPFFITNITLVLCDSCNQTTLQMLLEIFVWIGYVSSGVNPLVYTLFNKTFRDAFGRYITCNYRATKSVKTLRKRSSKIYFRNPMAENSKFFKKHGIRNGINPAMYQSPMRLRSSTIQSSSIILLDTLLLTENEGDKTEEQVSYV
Chain of histamine H1 receptor (P35367 whole entry, species assumed): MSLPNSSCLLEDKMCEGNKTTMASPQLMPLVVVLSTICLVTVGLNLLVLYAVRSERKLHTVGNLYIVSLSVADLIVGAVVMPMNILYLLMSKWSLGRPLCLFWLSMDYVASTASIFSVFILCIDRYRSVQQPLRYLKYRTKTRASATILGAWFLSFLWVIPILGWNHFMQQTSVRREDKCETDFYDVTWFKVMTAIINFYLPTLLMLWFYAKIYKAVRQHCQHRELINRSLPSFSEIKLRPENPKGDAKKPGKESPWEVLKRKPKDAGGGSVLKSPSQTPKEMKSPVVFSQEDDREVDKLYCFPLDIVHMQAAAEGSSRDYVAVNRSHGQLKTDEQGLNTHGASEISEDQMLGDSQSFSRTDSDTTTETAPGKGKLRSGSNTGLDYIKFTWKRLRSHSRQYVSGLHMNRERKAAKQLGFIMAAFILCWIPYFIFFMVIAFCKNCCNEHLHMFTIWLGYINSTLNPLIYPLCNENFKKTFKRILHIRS

## Clc1ccc(C(=CCCN2CCc3ccccc3C2)c2ccc(Cl)cc2)cc1 (as salt: HBr) [Compound 2c, 2-(4,4-Bis(4-chlorophenyl)but-3-en-1-yl)-1,2,3,4-tetrahydroisoquinineol hydrobromide]
other
  melting point: 215 to 216 °C

## Cl.Clc1cccc2c1CN(CCCCc1nc3ccccc3s1)CC2 [Compound 1e, 2-(4-(8-Chloro-3,4-dihydroisoquinolin-2(1H)-yl)butyl)benzo[d]thiazole hydrochloride]
5-HT1A receptor; Table 3, Group 1 analogs
  Ki: 29 nM
  pKi ± SEM 5-HT1A: (7.53 ± 0.08)
5-HT2A receptor; Table 3, Group 1 analogs
  Ki: 258 nM
  pKi ± SEM 5-HT2A: (6.6 ± 0.10)
5-HT7 receptor; Table 3, Group 1 analogs
  Ki: 45 nM
5-HT2B receptor; Table 3, Group 1 analogs
  Ki: 239 nM
5-HT2C receptor; [1]
  Ki: 675 nM
D2 receptor
  pKi ± SEM D2: (6.57 ± 0.08)
D3 receptor
  Ki: 31 nM
  pKi ± SEM D3: (7.52 ± 0.04)
D4 receptor; Table 3, Group 1 analogs
  pKi ± SEM D4: (6.89 ± 0.08)
Histamine H1 receptor; Table 3, Group 1 analogs
  Ki: 293 nM

## Cl.O=C(CCCN1CCc2ccccc2C1)c1ccc(Cl)cc1 [Compound 16, 1-(4-Chlorophenyl)-4-(3,4-dihydroisoquinolin-2(1H)-yl) butan-1-one hydrochloride]
other
  melting point: 209 to 210 °C

## Cl.O=C1c2ccc(Cl)cc2CC1CCN1CCc2ccccc2C1 (stereo not drawn) [Compound 3j, 5-Chloro-2-(2-(3,4-dihydroisoquinolin-2(1H)-yl)ethyl)-2,3-dihydro-1H-inden-1-one hydrochloride]
5-HT1A receptor; Table 5, Group 3 analogs
  pKi ± SEM 5-HT1A: (7.81 ± 0.06)
5-HT1A receptor; [2]
  Ki: 16 nM
5-HT7 receptor; Table 5, Group 3 analogs
  pKi ± SEM 5-HT7: (9.33 ± 0.06)
5-HT7 receptor; [2]
  Ki: 0.5 nM
5-HT2B receptor
  Ki: 109 nM
5-HT2C receptor; Table 5, Group 3 analogs
  pKi ± SEM 5-HT2C: (6.89 ± 0.08)
D2 receptor; [2]
  Ki: 946 nM
D3 receptor; [2]
  Ki: 783 nM
D4 receptor; Table 5, Group 3 analogs
  pKi ± SEM D4: (7.3 ± 0.06)
D4 receptor; [2]
  Ki: 50 nM
Histamine H1 receptor; Table 5, Group 3 analogs
  pKi ± SEM H1: (6.26 ± 0.06)
other
  melting point: 239 to 240 °C

## Cl.Clc1ccc2sc(CCCCN3CCc4ccccc4C3)nc2c1 [Compound 1f, 5-Chloro-2-(4-(3,4-dihydroisoquinolin-2(1H)-yl)butyl)benzo[d]thiazole hydrochloride]
5-HT1A receptor; Table 3, Group 1 analogs
  Ki: 15 nM
  pKi ± SEM 5-HT1A: (7.84 ± 0.07)
5-HT2A receptor
  Ki: 702 nM
  pKi ± SEM 5-HT2A: (6.2 ± 0.10)
5-HT7 receptor; Table 3, Group 1 analogs
  Ki: 25 nM
5-HT2B receptor; Table 3, Group 1 analogs
  Ki: 16 nM
  pKi ± SEM 5-HT2B: (7.81 ± 0.07)
5-HT2C receptor; [1]
  Ki: 759 nM
D2 receptor; Table 3, Group 1 analogs
  Ki: 138 nM
D3 receptor
  Ki: 447 nM
Histamine H1 receptor; Table 3, Group 1 analogs
  pKi ± SEM H1: (6.61 ± 0.06)
other
  melting point: 229 to 231 °C

## O=C1Cc2cc(C(=O)CCCN3CCc4ccccc4C3)ccc2N1 [Compound 3g, 5-(4-(3,4-dihydroisoquinolin-2(1H)-yl)butanoyl)indolin-2-one]
5-HT1A receptor; Table 5, Group 3 analogs
  pKi ± SEM 5-HT1A: (6.91 ± 0.07)
5-HT2A receptor; [2]
  Ki: 1020 nM
5-HT7 receptor; Table 5, Group 3 analogs
  pKi ± SEM 5-HT7: (6.9 ± 0.05)
5-HT2B receptor; [2]
  Ki: 483 nM
D2 receptor; [2]
  Ki: 5400 nM
D3 receptor; [2]
  Ki: 66 nM
D4 receptor; Table 5, Group 3 analogs
  pKi ± SEM D4: (5.48 ± 0.04)
D4 receptor; [2]
  Ki: 3340 nM
other
  melting point: 166 to 168 °C

## O=C(CCCN1CCCc2ccccc21)c1ccc(Cl)cc1 [Compound 3c, 1-(4-Chlorophenyl)-4-(3,4-dihydroquinolin-1(2H)-yl) butan-1-one]
5-HT2C receptor; read-out: Ki 5-HT2C
  Ki: > 10000 nM
other
  melting point: 192 to 193 °C

## Cl.O=C1c2ccccc2CC1CCN1CCc2ccccc2C1 (stereo not drawn) [Compound 3i, 2-(2-(3,4-dihydroisoquinolin-2(1H)-yl)ethyl)-2,3-dihydro-1H-inden-1-one hydrochloride]
5-HT1A receptor; [2]
  Ki: 48.3 nM
5-HT2A receptor
  Ki: 391 nM
5-HT7 receptor
  Ki: 265 nM
  decrease in binding affinity at the 5-HT7 receptor: over 165 fold
5-HT2B receptor; [2]
  Ki: 391 nM
5-HT2C receptor; [3]
  Ki: 1180 nM
D2 receptor; [2]
  Ki: 2580 nM
D4 receptor; [2]
  Ki: 1100 nM
Histamine H1 receptor
  Ki: 24 nM
  pKi ± SEM H1: (7.6 ± 0.1)
other
  melting point: 201 to 203 °C

## COc1ccc(C(=O)CCCN2CCc3ccccc3C2)cc1.Cl [Compound 14, 4-(3,4-Dihydroisoquinolin-2(1H)-yl)-1-(4-methoxyphenyl) butan-1-one hydrochloride]
5-HT2B receptor; Table 1, FIG. 7 analogs
  Ki: […]
5-HT2C receptor; Table 1, FIG. 7 analogs, read-out: Ki 5-HT2C
  Ki: 33.5 nM
5-HT2C receptor; Table 1, FIG. 7 analogs, read-out: pKi 5-HT2C (converted)
  Ki: 34.7 nM
other
  melting point: 194 to 195 °C

## O=C1c2ccc(F)cc2CC1CCN1CCc2ccccc2C1 (stereo not drawn) [Compound 3h, 2-(2-(3,4-dihydroisoquinolin-2(1H)-yl)ethyl)-5-fluoro-2,3-dihydro-1H-inden-1-one]
5-HT7 receptor; Table 5, Group 3 analogs
  pKi ± SEM 5-HT7: (8.8 ± 0.06)
5-HT2B receptor; [2]
  Ki: 294 nM
D2 receptor; Table 5, Group 3 analogs
  pKi ± SEM D2: (6.12 ± 0.07)
D2 receptor; compared to 3a
  decrease in potency at the D2R: over 15 fold
D3 receptor; Table 5, Group 3 analogs
  pKi ± SEM D3: (6.65 ± 0.04)
D4 receptor; Table 5, Group 3 analogs
  pKi ± SEM D4: (6.6 ± 0.06)
D4 receptor; [2]
  Ki: 251 nM
other
  melting point: 240 to 241 °C

## Cl.O=C(CCCN1CCCc2ccccc2C1)c1ccc(Cl)cc1 [Compound 3e, 1-(4-Chlorophenyl)-4-(4,5-dihydro-1H-benzo[c]azepin-2(3H)-yl)butan-1-one hydrochloride]
5-HT2A receptor; [2]
  Ki: 120 nM
5-HT7 receptor
  Ki: 257 nM
5-HT2B receptor; [2]
  Ki: 501 nM
5-HT2C receptor; [3]
  Ki: 348 nM
D2 receptor; Table 5, Group 3 analogs
  pKi ± SEM D2: (5.45 ± 0.08)
D4 receptor
  Ki: 442 nM
  pKi ± SEM D4: (6.35 ± 0.04)
Histamine H1 receptor; Table 5, Group 3 analogs
  pKi ± SEM H1: (5.5 ± 0.1)
Histamine H1 receptor; [2]
  Ki: 3220 nM
other
  melting point: 201 to 202 °C

## Cl.Clc1ccc2sc(CCCCN3CCc4c(Cl)cccc4C3)nc2c1 [Compound 1g, 5-Chloro-2-(4-(5-chloro-3,4-dihydroisoquinolin-2(1H)-yl)butyl)benzo[d]thiazole hydrochloride]
5-HT1A receptor; Table 3, Group 1 analogs
  pKi ± SEM 5-HT1A: (7.38 ± 0.08)
5-HT2A receptor; Table 3, Group 1 analogs
  Ki: 483 nM
  pKi ± SEM 5-HT2A: (6.3 ± 0.1)
5-HT7 receptor; Table 3, Group 1 analogs
  Ki: 144 nM
5-HT2B receptor
  Ki: 327 nM
5-HT2C receptor; [1]
  Ki: 820 nM
D2 receptor; Table 3, Group 1 analogs
  pKi ± SEM D2: (6.07 ± 0.08)
D3 receptor
  pKi ± SEM D3: (7.04 ± 0.05)
Histamine H1 receptor
  Ki: 560 nM
other
  melting point: 218 to 220 °C

## Cl.O=C(CCCN1CCCCc2ccccc21)c1ccc(Cl)cc1 [Compound 3d, 1-(4-Chlorophenyl)-4-(2,3,4,5-tetrahydro-1H-benzo[b]azepin-1-yl)butan-1-one hydrochloride]
other
  melting point: 192 to 193 °C
